Patent US20250206751A1, “HETEROCYCLIC COMPOUND FOR INDUCING DEGRADATION OF G12D MUTANT KRAS PROTEIN” (Astellas Pharma Inc., priority 2022, published 2025)

Assays:
[1] = tested on: human KRAS G12D mutant-positive PK-59 pancreatic cancer cell line-derived xenograft; assay: Anti-tumor activity in PK-59 xenograft mice (Test Example 4); format: in vivo; settings: 10 mg/kg into tail vein, once a week, twice in total; PK-59 xenograft nude mice
Method: Test Example 4: Evaluation of Anti-Tumor Activity in Human KRAS G12D Mutant -Positive PK-59 Pancreatic Cancer Cell Line-Derived Xenograft Mice
PK-59 cells (RIKEN BRC, RCB1901) were cultured using a RPMI 1640 medium containing 10% fetal bovine serum in the presence of 5% CO2 at 37° C. The PK-59 cells were collected and suspended in PBS, and after adding an equal amount of Matrigel (from Becton, Dickinson and Company), 4-5-week-old male nude mice (CAnN.Cg-Foxn1^nu/CrlCrlj (nu/nu), from Charles River Laboratories Japan) were subcutaneously inoculated with the cell suspension of 1.0-2.0×10^7 cells/mL in a volume of 100 μL per mouse. About two weeks after the inoculation, the mice were divided into groups so that all the groups had approximately the same tumor volume and body weight, and administration of test compounds was started on the next day. The study was conducted for 5 mice each of a vehicle group and test compound administration groups. The compounds were dissolved in a solvent containing ethanol (from FUJIFILM Wako Pure Chemical Corporation), a 5% glucose solution (from Otsuka Pharmaceutical), 1M hydrochloric acid (from Kanto Chemical Co., Inc.), 50% (2-hydroxypropyl)-β-cyclodextrin (HP-βCD) solution (from ROQUETTE), HCO-40 (from Nikko Chemicals Co., Ltd.) and 1M sodium hydroxide solution (from Kanto Chemical Co., Inc.) at a liquid amount ratio of 4:84.4:1.1:1:9:0.5. The test compounds dissolved in the respective solvent for the test compound administration groups and the solvent for the vehicle group were administered into tail vein. The administration was performed once a week and twice in total. The tumor sizes and the body weights were measured twice a week. The tumor volumes were calculated using the following equation.
[Tumor volume (mm^3)]=[Long diameter of the tumor (mm)]×[Short diameter of the tumor (mm)]^2×0.5
The tumor growth inhibition rate (%) by the test compounds were calculated with the tumor volumes of the test compound administration groups on the previous day of the start of the administration taken as 100% inhibition and the tumor volumes of the vehicle groups two weeks after the initial administration taken as 0% inhibition. In addition, when the tumor volume of a test compound administration group was smaller than the tumor volume on the previous day of the start of the administration, the tumor regression rate (%) by the test compound was calculated with the tumor volume on the previous day of the start of the administration taken as 0% regression and with the tumor volume 0 taken as 100% regression.

[2] = tested on: phosphorylation of threonine 202 (Thr202) and tyrosine 204 (Tyr204) of ERK; assay: ERK phosphorylation inhibitory effect by Cell ELISA in AsPC-1 (Test Example 2); format: cell-based, human; settings: Homo sapiens, ASPC1, AsPC-1 cells, cultured overnight with compound; 1 μM trametinib taken as 0%
Outline: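 AsPC-1 cells (G12D KRAS) treated overnight with compound (10 points, 10 μM to 0.3 nM final), then glyoxal-fixed and immunostained for phospho-ERK with a fluorescent secondary read at 800 nm. IC50 by Sigmoid-Emax regression, with DMSO as 100% and 1 μM trametinib as 0%.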

IC50 [2] | Compound | Anti-Tumor Activity Two Weeks After Initial Administration: tumor growth inhibition rate [1] | Anti-Tumor Activity Two Weeks After Initial Administration: tumor regression rate [1]
8 nM | CCn1nccc1-c1ccc([C@H](CO)NC(=O)[C@@H]2C[C@@H](O)CN2C(=O)[C@H](C(C)C)n2cc(-c3ccc(COc4c(-c5c(C)c(F)cc6[nH]ncc56)c(C5CC5)cc5c(N(C)[C@H]6CCNC6)nc(OC[C@H](C)OC)nc45)cc3)nn2)cc1 (atropisomer, axis not shown; (M)) [Example 13] |  | 26% regression
24 nM | CO[C@@H](C)COc1cc(N(C)[C@H]2CCNC2)c2cc(C3CC3)c(-c3c(C)c(F)cc4[nH]ncc34)c(OCc3ccc(-c4cn([C@H](C(=O)N5C[C@H](O)C[C@H]5C(=O)N[C@@H](CO)c5ccc(-c6scnc6C)cc5)C(C)C)nn4)cc3)c2n1 (atropisomer, axis not shown; (M)) [Example 11, (4R)-1-[(2S)-2-{4-[4-({[(7M)-6-cyclopropyl-7-(6-fluoro-5-methyl-1H-indazol-4-yl)-2-[(2S)-2-methoxypropoxy]-4-{methyl[(3S)-pyrrolidin-3-yl]amino}quinazolin-8-yl]oxy}methyl)phenyl]-1H-1,2,3-triazol-1-yl}-3-methylbutanoyl]-4-hydroxy-N-{(1R)-2-hydroxy-1-[4-(4-methyl-1,3-thiazol-5-yl)phenyl]ethyl}-L-prolinamide] |  | 6% regression

The next lines start with the molecule.

Compound | IC50 [2] | Anti-Tumor Activity Two Weeks After Initial Administration: tumor growth inhibition rate [1] | Anti-Tumor Activity Two Weeks After Initial Administration: tumor regression rate [1]
Cc1ncsc1-c1ccc([C@H](CO)NC(=O)[C@@H]2C[C@@H](O)CN2C(=O)[C@H](C(C)C)n2cc(-c3ccc(COc4c(-c5c(C)c(F)cc6[nH]ncc56)c(C5CC5)cc5c(N(C)[C@H]6CCNC6)nc(OC[C@H]6CCCO6)nc45)cc3)nn2)cc1 (atropisomer, axis not shown; (M)) [Example 9, (4R)-1-[(2S)-2-{4-[4-({[(7M) 6-cyclopropyl-7-(6-fluoro-5-methyl-1H-indazol-4-yl)-4-{methyl[(3S)-pyrrolidin-3-yl]amino}-2-{[(2R)-oxolan-2-yl]methoxy}quinazolin-8-yl}oxy}methyl)phenyl]-1H-1,2,3-triazol-1-yl}-3-methylbutanoyl]-4-hydroxy-N-{(1R)-2-hydroxy-1-[4-(4-methyl-1,3-thiazol-5-yl)phenyl]ethyl}-L-prolinamide] | 11 nM | 81% inhibition | 
CO[C@@H](C)COc1nc(N(C)[C@@H]2CCNC2)c2cc(C3CC3)c(-c3c(C)c(F)cc4[nH]ncc34)c(OCc3ccc(-c4cn([C@H](C(=O)N5C[C@H](O)C[C@H]5C(=O)N[C@@H](CO)c5ccc(-c6scnc6C)cc5)C(C)C)nn4)cc3)c2n1 (atropisomer, axis not shown; (M)) [Example 53] | 9 nM |  | 53% regression
CCN(c1nc(OC[C@H](C)OC)nc2c(OCc3ccc(-c4cn([C@H](C(=O)N5C[C@H](O)C[C@H]5C(=O)N[C@@H](CO)c5ccc(-c6scnc6C)cc5)C(C)C)nn4)cc3)c(-c3c(C)c(F)cc4[nH]ncc34)c(C3CC3)cc12)[C@H]1CCNC1 (atropisomer, axis not shown; (M)) [Example 50, (4R)-1-[(2S)-2-(4-{4-[({(7M)-6-cyclopropyl-4-{ethyl[(3S)-pyrrolidin-3-yl]amino}-7-(6-fluoro-5-methyl-1H-indazol-4-yl)-2-[(2S)-2-methoxypropoxy]quinazolin-8-yl}oxy)methyl)phenyl}-1H-1,2,3-triazol-1-yl)-3-methylbutanoyl]-4-hydroxy-N-{(1R)-2-hydroxy-1-[4-(4-methyl-1,3-thiazol-5-yl)phenyl]ethyl}-L-prolinamide] | 8 nM |  | 20% regression
